Measurements as given in ChEMBL document CHEMBL3046607, “Synthesis and Herbicidal Activity of New 1-Alkyl-3-aryloxypyrazole-4-carboxamide Derivatives” (J Pestic Sci, 2004).
Calls of active or inactive are those of the source. The calls are words filed in the database; no cut-off is given here.

What was measured:
Cyperus difformis [1] = assay: Post-emergence herbicidal activity against Cyperus difformis assessed as bleaching of stem/leaf parts; assay type: functional, organism-based; further: test concentration or dose not given here
Rotala indica [2] = assay: Pre-emergence herbicidal activity against Rotala indica at 33 g a.i/ha measured after 14 days; assay type: functional, organism-based
Echinochloa oryzicola [3] = assay: Pre-emergence herbicidal activity against Echinochloa oryzicola assessed as bleaching of stem/leaf parts; assay type: functional, organism-based
Pontederia vaginalis [4] = assay: Pre-emergence herbicidal activity against Monochoria vaginalis at 33 g a.i/ha measured after 14 days; assay type: functional, organism-based
Echinochloa oryzicola [5] = assay: Pre-emergence herbicidal activity against Echinochloa oryzicola at 33 g a.i/ha measured after 14 days; assay type: functional, organism-based
[6] = system: Schoenoplectiella juncoides; assay: Post-emergence herbicidal activity against Schoenoplectiella juncoides assessed as bleaching of stem/leaf parts; assay type: functional, organism-based; further: test concentration or dose not given here
Cyperus difformis [7] = assay: Pre-emergence herbicidal activity against Cyperus difformis assessed as bleaching of stem/leaf parts; assay type: functional, organism-based
Rotala indica [8] = assay: Pre-emergence herbicidal activity against Rotala indica assessed as bleaching of stem/leaf parts; assay type: functional, organism-based
Cyperus difformis [9] = assay: Pre-emergence herbicidal activity against Cyperus difformis at 33 g a.i/ha measured after 14 days; assay type: functional, organism-based
Lindernia procumbens [10] = assay: Post-emergence herbicidal activity against Lindernia procumbens assessed as bleaching of stem/leaf parts; assay type: functional, organism-based; further: test concentration or dose not given here
Pontederia vaginalis [11] = assay: Pre-emergence herbicidal activity against Monochoria vaginalis assessed as bleaching of stem/leaf parts; assay type: functional, organism-based
Elatine triandra [12] = assay: Pre-emergence herbicidal activity against Elatine triandra at 33 g a.i/ha measured after 14 days; assay type: functional, organism-based
Oryza sativa = assay: Phytotoxicity against Oryza sativa cv. Koshihikari (rice) at 33 g a.i/ha measured after 14 days; assay type: organism-based; details: in vivo, 336 h
Lindernia procumbens [13] = assay: Pre-emergence herbicidal activity against Lindernia procumbens assessed as bleaching of stem/leaf parts; assay type: functional, organism-based
[14] = system: Schoenoplectiella juncoides; assay: Pre-emergence herbicidal activity against Schoenoplectiella juncoides at 33 g a.i/ha measured after 14 days; assay type: functional, organism-based
Ammannia multiflora [15] = assay: Post-emergence herbicidal activity against Ammannia multiflora assessed as bleaching of stem/leaf parts; assay type: functional, organism-based
Pontederia vaginalis [16] = assay: Post-emergence herbicidal activity against Monochoria vaginalis assessed as bleaching of stem/leaf parts; assay type: functional, organism-based
Ammannia multiflora [17] = assay: Pre-emergence herbicidal activity against Ammannia multiflora at 33 g a.i/ha measured after 14 days; assay type: functional, organism-based
Lindernia procumbens [18] = assay: Pre-emergence herbicidal activity against Lindernia procumbens at 33 g a.i/ha measured after 14 days; assay type: functional, organism-based
Elatine triandra [19] = assay: Post-emergence herbicidal activity against Elatine triandra assessed as bleaching of stem/leaf parts; assay type: functional, organism-based; further: test concentration or dose not given here
Elatine triandra [20] = assay: Pre-emergence herbicidal activity against Elatine triandra assessed as bleaching of stem/leaf parts; assay type: functional, organism-based
[21] = system: Schoenoplectiella juncoides; assay: Pre-emergence herbicidal activity against Schoenoplectiella juncoides assessed as bleaching of stem/leaf parts; assay type: functional, organism-based
Rotala indica [22] = assay: Post-emergence herbicidal activity against Rotala indica assessed as bleaching of stem/leaf parts; assay type: functional, organism-based
Echinochloa oryzicola [23] = assay: Post-emergence herbicidal activity against Echinochloa oryzicola assessed as bleaching of stem/leaf parts; assay type: functional, organism-based
Ammannia multiflora [24] = assay: Pre-emergence herbicidal activity against Ammannia multiflora assessed as bleaching of stem/leaf parts; assay type: functional, organism-based

Row | SMILES | Activity (Cyperus difformis [1]) | Activity (Rotala indica [2]) | Activity (Echinochloa oryzicola [3]) | Activity (Pontederia vaginalis [4]) | Activity (Echinochloa oryzicola [5]) | Activity [6] | Activity (Cyperus difformis [7]) | Activity (Rotala indica [8]) | Activity (Lindernia procumbens [10]) | Activity (Pontederia vaginalis [11]) | Activity (Elatine triandra [12]) | Activity (Oryza sativa) | Activity (Lindernia procumbens [13]) | Activity [14] | Activity (Ammannia multiflora [15]) | Activity (Pontederia vaginalis [16]) | Activity (Ammannia multiflora [17]) | Activity (Lindernia procumbens [18]) | Activity (Elatine triandra [19]) | Activity (Elatine triandra [20]) | also measured
1 | CCCn1cc(C(=O)Nc2ccc(F)cc2F)c(Oc2cccc(C(F)(F)F)c2)n1 | Active | inactive | Active | inactive | inactive | Active | Active | Active | Active | Active | inactive | Non-toxic | Active | inactive | Active | Active | inactive | inactive | Active | Active | Activity (Cyperus difformis [9]): inactive; Activity [21]: Active; Activity (Rotala indica [22]): Active; Activity (Echinochloa oryzicola [23]): Active; Activity (Ammannia multiflora [24]): Active
2 | Cn1cc(C(=O)Nc2ccc(F)cc2F)c(Oc2ccc(Br)c(C(F)(F)F)c2)n1 | Active | Active | Active | Active | inactive | Active | Active | Active | Active | Active | Active | Non-toxic | Active | inactive | Active | Active | Active | Active | Active | Active | Activity (Cyperus difformis [9]): Active; Activity [21]: Active; Activity (Rotala indica [22]): Active; Activity (Echinochloa oryzicola [23]): Active; Activity (Ammannia multiflora [24]): Active
3 | CCCCn1cc(C(=O)Nc2ccc(F)cc2F)c(Oc2cccc(C(F)(F)F)c2)n1 | Active | inactive | Active | inactive | inactive | Active | Active | Active | Active | Active | inactive | Non-toxic | Active | inactive | Active | Active | inactive | inactive | Active | Active | Activity (Cyperus difformis [9]): inactive; Activity [21]: Active; Activity (Rotala indica [22]): Active; Activity (Echinochloa oryzicola [23]): Active; Activity (Ammannia multiflora [24]): Active
4 | CC(C)n1cc(C(=O)Nc2ccc(F)cc2F)c(Oc2cccc(C(F)(F)F)c2)n1 | Active | inactive | Active | inactive | inactive | Active | Active | Active | Active | Active | inactive | Non-toxic | Active | inactive | Active | Active | inactive | inactive | Active | Active | Activity (Cyperus difformis [9]): inactive; Activity [21]: Active; Activity (Rotala indica [22]): Active; Activity (Echinochloa oryzicola [23]): Active; Activity (Ammannia multiflora [24]): Active
5 | Cc1ccccc1NC(=O)c1cn(C)nc1Oc1cccc(C(F)(F)F)c1 | Active | Active | Active | Active | inactive | Active | Active | Active | Active | Active | Active | Non-toxic | Active | inactive | Active | Active | Active | Active | Active | Active | Activity (Cyperus difformis [9]): Active; Activity [21]: Active; Activity (Rotala indica [22]): Active; Activity (Echinochloa oryzicola [23]): Active; Activity (Ammannia multiflora [24]): Active
6 | Cn1cc(C(=O)Nc2ccccc2F)c(Oc2cccc(C(F)(F)F)c2)n1 | Active | Active | Active | Active | Active | Active | Active | Active | Active | Active | Active | Non-toxic | Active | inactive | Active | Active | Active | Active | Active | Active | Activity (Cyperus difformis [9]): Active; Activity [21]: Active; Activity (Rotala indica [22]): Active; Activity (Echinochloa oryzicola [23]): Active; Activity (Ammannia multiflora [24]): Active
7 | O=C(Nc1ccc(F)cc1F)c1cn(CCF)nc1Oc1cccc(C(F)(F)F)c1 | Active | inactive | Active | inactive | inactive | Active | Active | Active | Active | Active | inactive | Non-toxic | Active | inactive | Active | Active | inactive | inactive | Active | Active | Activity (Cyperus difformis [9]): inactive; Activity [21]: Active; Activity (Rotala indica [22]): Active; Activity (Echinochloa oryzicola [23]): Active; Activity (Ammannia multiflora [24]): Active
8 | Cn1cc(C(=O)Nc2ccc(F)cc2Cl)c(Oc2cccc(C(F)(F)F)c2)n1 | Active | Active | Active | Active | Active | Active | Active | Active | Active | Active | Active | Non-toxic | Active | Active | Active | Active | Active | Active | Active | Active | Activity (Cyperus difformis [9]): Active; Activity [21]: Active; Activity (Rotala indica [22]): Active; Activity (Echinochloa oryzicola [23]): Active; Activity (Ammannia multiflora [24]): Active
9 | Cn1cc(C(=O)Nc2ccc(F)c(F)c2F)c(Oc2cccc(C(F)(F)F)c2)n1 | Active | Active | Active | Active | Active | Active | Active | Active | Active | Active | Active | Non-toxic | Active | Active | Active | Active | Active | Active | Active | Active | Activity [21]: Active; Activity (Rotala indica [22]): Active; Activity (Echinochloa oryzicola [23]): Active; Activity (Ammannia multiflora [24]): Active
10 | Cn1cc(C(=O)Nc2ccc(Cl)cc2F)c(Oc2cccc(C(F)(F)F)c2)n1 | Active | Active | Active | Active | inactive | Active | Active | Active | Active | Active | Active | Non-toxic | Active | inactive | Active | Active | Active | Active | Active | Active | Activity (Cyperus difformis [9]): Active; Activity [21]: Active; Activity (Rotala indica [22]): Active; Activity (Echinochloa oryzicola [23]): Active; Activity (Ammannia multiflora [24]): Active
